Measured values from patent US20240246967A1, “AXL COMPOUNDS” (ARCUS BIOSCIENCES, INC., priority 2021, published 2024).

Target: T1, human TYRO3 (Homo sapiens, UniProt Q06418)
T1 construct: purchased Invitrogen
T1 sequence (Q06418 41-890): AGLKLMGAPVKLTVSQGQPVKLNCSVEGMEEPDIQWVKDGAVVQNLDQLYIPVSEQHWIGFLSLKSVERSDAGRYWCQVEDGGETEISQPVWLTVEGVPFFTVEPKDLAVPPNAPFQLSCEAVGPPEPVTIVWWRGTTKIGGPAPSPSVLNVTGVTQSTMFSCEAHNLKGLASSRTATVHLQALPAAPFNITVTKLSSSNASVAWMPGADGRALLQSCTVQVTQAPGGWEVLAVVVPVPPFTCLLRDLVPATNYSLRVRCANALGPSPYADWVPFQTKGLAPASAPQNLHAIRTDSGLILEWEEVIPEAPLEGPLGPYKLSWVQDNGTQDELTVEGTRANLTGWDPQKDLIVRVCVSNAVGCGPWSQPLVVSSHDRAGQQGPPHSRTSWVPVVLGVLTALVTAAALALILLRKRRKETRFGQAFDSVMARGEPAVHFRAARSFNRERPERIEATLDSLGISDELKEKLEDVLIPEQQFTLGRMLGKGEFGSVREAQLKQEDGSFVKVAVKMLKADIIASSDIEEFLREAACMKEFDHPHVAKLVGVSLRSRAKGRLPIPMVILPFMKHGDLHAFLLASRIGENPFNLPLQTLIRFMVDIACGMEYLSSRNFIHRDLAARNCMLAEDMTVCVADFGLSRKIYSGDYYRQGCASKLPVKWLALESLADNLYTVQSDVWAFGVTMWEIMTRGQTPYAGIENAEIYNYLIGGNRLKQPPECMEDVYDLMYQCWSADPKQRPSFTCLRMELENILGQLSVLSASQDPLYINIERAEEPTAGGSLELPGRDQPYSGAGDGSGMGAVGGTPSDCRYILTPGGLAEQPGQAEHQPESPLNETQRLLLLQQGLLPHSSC
Assay: HTRF KinEASE-TK biochemical potency assay, TYRO3
Details: 1 nM TYRO3, 700 μM ATP, 800 nM TK Substrate-biotin
Method: Purified recombinant human AXL, TYRO3 and MER proteins were purchased from Invitrogen™. 10 nM AXL, 2 nM TYRO3 or MER were incubated with varying concentrations of compounds in 50 mM HEPES, pH 7.4, 10 mM MgCl2, 0.01% BSA, 1 mM DTT and 2% DMSO in a total volume of 20 μl in a 384-well microplate (Corning™ #3640) at RT for 1 h. The AXL, TYRO3 and MER enzymatic reaction was initiated by transferring 10 μl of enzyme and compound mixture into 10 μl of 1.6 μM TK Substrate-biotin (HTRF® KinEASE-TK kit, Cisbio) and 1400 μM ATP pre-incubated in 50 mM HEPES, pH 7.4, 10 mM MgCl2, 0.01% BSA, 1 mM DTT in a 384-well microplate (Corning™ #3640) at RT, giving the final reaction conditions: 5 nM AXL, 1 nM TYRO3 or MER, 800 nM TK Substrate-biotin and 700 μM ATP in 50 mM HEPES, pH 7.4, 10 mM MgCl2, 0.01% BSA, 1 mM DTT and 1% DMSO with varying concentrations of compounds. Following 2 h incubation at RT, the AXL, TYRO3 and MER enzymatic reaction was stopped by transfer of 10 μl of reaction into 10 μl of detection mix (400 nM Streptavidin-XL665, 200-fold dilution TK Antibody-Cryptate and detection buffer, HTRF® KinEASE-TK kit, Cisbio) in a white 384-well microplate (Perkin Elmer, OptiPlate 384). After 1 h incubation at RT, the plate was put into a plate reader (Evision) to read at 665/620 nm (acceptor/donor) for HTRF. The value of the DMSO blank (MIN inhibition=100% activity) was used as a negative control. The positive control was established by adding 5 μl of enzyme and DMSO mixture into 10 μl of detection mix followed by addition of 5 μl of TK Substrate-biotin and ATP mixture (MAX inhibition=0% activity). To calculate the percent activity, Equation 1 was used. Ratio 665/620 is the value at a given compound concentration: […]

IC50 [nM]	SMILES
100 to 1000	C[C@@H]1CCCN1C1(C)CCc2ccc(-c3cnc4[nH]nc(-c5ccc(S(=O)(=O)C6CCCC6)cc5)c4c3)cc2CC1 (stereo partly drawn) [Example 45, 3-(4-(Cyclopentylsulfonyl)phenyl)-5-(7-methyl-7-((R)-2-methylpyrrolidin-1-yl)-6,7,8,9-tetrahydro-5H-benzo[7]annulen-2-yl)-1H-pyrazolo[3,4-b]pyridine]
100 to 1000	C[C@@H]1CCCN1C1(C)CCc2ccc(-c3cnc4[nH]nc(-c5ccc(S(=O)(=O)C6CCC6)cc5)c4c3)cc2CC1 (stereo partly drawn) [Example 46, 3-(4-(Cyclobutylsulfonyl)phenyl)-5-(7-methyl-7-((R)-2-methylpyrrolidin-1-yl)-6,7,8,9-tetrahydro-5H-benzo[7]annulen-2-yl)-1H-pyrazolo[3,4-b]pyridine]
< 100	Cc1cc(-c2n[nH]c3ncc(-c4ccc5c(c4)CCC(N4CCCC4)CC5)cc23)ccc1C(=O)N1CCNCC1 (centres unmarked) [Example 47, 1-(2-Methyl-4-{5-[7-(pyrrolidin-1-yl)-6,7,8,9-tetrahydro-5H-benzo[7]annulen-2-yl]-1H-pyrazolo[3,4-b]pyridin-3-yl}benzoyl)piperazine]
100 to 1000	Cc1cc(-c2n[nH]c3ncc(-c4ccc5c(c4)CCN(C(=O)C(C)C)CC5)cc23)ccc1C(=O)N1CCNCC1 [Example 48, 2-Methyl-1-(7-{3-[3-methyl-4-(piperazine-1-carbonyl)phenyl]-1H-pyrazolo[3,4-b]pyridin-5-yl}-2,3,4,5-tetrahydro-1H-3-benzazepin-3-yl)propan-1-one]
< 100	Cc1cc(-c2n[nH]c3ncc(-c4ccc5c(c4)CC[C@@H](N4CCCC4)CC5)cc23)cc(C)c1C(N)=O [Example 49, 2,6-Dimethyl-4-{5-[(7S)-7-(pyrrolidin-1-yl)-6,7,8,9-tetrahydro-5H-benzo[7]annulen-2-yl]-1H-pyrazolo[3,4-b]pyridin-3-yl}benzamide]
< 100	Cc1cc(-c2n[nH]c3ncc(-c4ccc5c(c4)CC[C@@H](N4CCCC4)CC5)cc23)cc(Cl)c1C(N)=O [Example 50, 2-Chloro-6-methyl-4-{5-[(7S)-7-(pyrrolidin-1-yl)-6,7,8,9-tetrahydro-5H-benzo[7]annulen-2-yl]-1H-pyrazolo[3,4-b]pyridin-3-yl}benzamide]
< 100	C[C@@H]1CCCN1C1(C)CCc2ccc(-c3cnc4[nH]nc(-c5ccc(C(N)=O)c(F)c5)c4c3)cc2CC1 (stereo partly drawn) [Example 52, 2-Fluoro-4-(5-(7-methyl-7-((R)-2-methylpyrrolidin-1-yl)-6,7,8,9-tetrahydro-5H-benzo[7]annulen-2-yl)-1H-pyrazolo[3,4-b]pyridin-3-yl)benzamide]
< 100	COc1cc(-c2n[nH]c3ncc(-c4ccc5c(c4)CCC(C)(N4CCC[C@H]4C)CC5)cc23)ccc1C(N)=O (stereo partly drawn) [Example 53, 2-Methoxy-4-(5-(7-methyl-7-((R)-2-methylpyrrolidin-1-yl)-6,7,8,9-tetrahydro-5H-benzo[7]annulen-2-yl)-1H-pyrazolo[3,4-b]pyridin-3-yl)benzamide]
< 100	C[C@@H]1CCCN1C1(C)CCc2ccc(-c3cnc4[nH]nc(-c5ccc(C(N)=O)cc5)c4c3)cc2CC1 (stereo partly drawn) [Example 54, 4-(5-(7-Methyl-7-((R)-2-methylpyrrolidin-1-yl)-6,7,8,9-tetrahydro-5H-benzo[7]annulen-2-yl)-1H-pyrazolo[3,4-b]pyridin-3-yl)benzamide]
< 100	Cc1cc(-c2n[nH]c3ncc(-c4ccc5c(c4)CC[C@@H](N4CCCC4)CC5)cc23)cc(C)c1C(=O)N1CCNCC1 [Example 55, 1-(2,6-Dimethyl-4-{5-[(7S)-7-(pyrrolidin-1-yl)-6,7,8,9-tetrahydro-5H-benzo[7]annulen-2-yl]-1H-pyrazolo[3,4-b]pyridin-3-yl}benzoyl)piperazine]
< 100	Cc1cc(-c2n[nH]c3ncc(-c4ccc5c(c4)CC[C@@H](N4CCCC4)CC5)cc23)cc(Cl)c1C(=O)N1CCNCC1 [Example 56, 1-(2-Chloro-6-methyl-4-{5-[(7S)-7-(pyrrolidin-1-yl)-6,7,8,9-tetrahydro-5H-benzo[7]annulen-2-yl]-1H-pyrazolo[3,4-b]pyridin-3-yl}benzoyl)piperazine]
100 to 1000	C[C@@H]1CCCN1C1(C)CCc2ccc(-c3cnc4[nH]nc(-c5ccc(C(C)(C)O)c(Cl)c5)c4c3)cc2CC1 (stereo partly drawn) [Example 57, 2-[2-Chloro-4-(5-{7-methyl-7-[(2R)-2-methylpyrrolidin-1-yl]-6,7,8,9-tetrahydro-5H-benzo[7]annulen-2-yl}-1H-pyrazolo[3,4-b]pyridin-3-yl)phenyl]propan-2-ol]
100 to 1000	C[C@H]1CCCN1C1(C)CCc2ccc(-c3cnc4[nH]nc(-c5ccc(C(C)(C)O)c(Cl)c5)c4c3)cc2CC1 (stereo partly drawn) [Example 58, 2-[2-Chloro-4-(5-{7-methyl-7-[(2S)-2-methylpyrrolidin-1-yl]-6,7,8,9-tetrahydro-5H-benzo[7]annulen-2-yl}-1H-pyrazolo[3,4-b]pyridin-3-yl)phenyl]propan-2-ol]
< 100	CC(C)(O)c1ccc(-c2n[nH]c3ncc(-c4cc5c(cn4)CCC(N4CCCC4)CC5)cc23)cc1Cl (centres unmarked) [Example 59, 2-(2-Chloro-4-{5-[7-(pyrrolidin-1-yl)-5H,6H,7H,8H,9H-cyclohepta[c]pyridin-3-yl]-1H-pyrazolo[3,4-b]pyridin-3-yl}phenyl)propan-2-ol]
100 to 1000	CC(C)(O)c1ccc(-c2n[nH]c3ncc(-c4ccc5c(n4)CCC(N4CCCC4)CC5)cc23)cc1Cl (centres unmarked) [Example 60, 2-(2-Chloro-4-{5-[7-(pyrrolidin-1-yl)-5H,6H,7H,8H,9H-cyclohepta[b]pyridin-2-yl]-1H-pyrazolo[3,4-b]pyridin-3-yl}phenyl)propan-2-ol]
> 1000	CC(C)(O)c1ccc(-c2n[nH]c3ncc(-c4ccc5c(c4)CC4CCC(C5)C4N4CCCC4)cc23)cc1Cl (centres unmarked) [Example 61, 2-(2-Chloro-4-{5-[13-(pyrrolidin-1-yl)tricyclo[8.2.1.0^3,8]trideca-3,5,7-trien-5-yl]-1H-pyrazolo[3,4-b]pyridin-3-yl}phenyl)propan-2-ol]
100 to 1000	C[C@@H]1CCCN1C1CCc2ccc(-c3cnc4[nH]nc(-c5ccc(C6(O)CCC6)c(Cl)c5)c4c3)cc2CC1 (stereo partly drawn) [Example 62, 1-[2-Chloro-4-(5-{7-[(2R)-2-methylpyrrolidin-1-yl]-6,7,8,9-tetrahydro-5H-benzo[7]annulen-2-yl}-1H-pyrazolo[3,4-b]pyridin-3-yl)phenyl]cyclobutan-1-ol]
< 100	C[C@@H]1CCCN1C1CCc2ccc(-c3cnc4[nH]nc(-c5ccc(S(N)(=O)=O)c(Cl)c5)c4c3)cc2CC1 (stereo partly drawn) [Example 94, 2-Chloro-4-(5-(7-((R)-2-methylpyrrolidin-1-yl)-6,7,8,9-tetrahydro-5H-benzo[7]annulen-2-yl)-1H-pyrazolo[3,4-b]pyridin-3-yl)benzenesulfonamide]
< 100	C[C@@H]1CCCN1C1(C)CCc2ccc(-c3cnc4[nH]nc(-c5ccc(S(N)(=O)=O)cc5)c4c3)cc2CC1 (stereo partly drawn) [Example 95, 4-(5-(7-Methyl-7-((R)-2-methylpyrrolidin-1-yl)-6,7,8,9-tetrahydro-5H-benzo[7]annulen-2-yl)-1H-pyrazolo[3,4-b]pyridin-3-yl)benzenesulfonamide]
100 to 1000	CC(C)(O)c1ccc(-c2n[nH]c3ncc(-c4ccc5c(c4)CCC4(CCCN4)CC5)cc23)cc1Cl (centres unmarked) [Example 96, 2-[2-Chloro-4-(5-{5,6,8,9-tetrahydrospiro[benzo[7]annulene-7,2′-pyrrolidin]-3-yl}-1H-pyrazolo[3,4-b]pyridin-3-yl)phenyl]propan-2-ol]
